From US9212396B2, “Materials and methods useful for affecting tumor cell growth, migration and invasion” (The Ohio State University, priority 2009, dated 2015)

What was measured:
Assay type in all cases: cell-based, human
miR-221 and miR-222 = assay: qRT-PCR of miR-221 and miR-222 in Huh7 cells after anisomycin; parameters: dose or concentration left out as unconfirmed
Protocol: Real-time PCR was performed using a standard TaqMan PCR Kit protocol on an Applied Biosystems 7900HT Sequence Detection System (Applied Biosystems). The 10 μl PCR reaction included 0.67 μl RT product, 1 μl TaqMan Universal PCR Master Mix (Applied Biosystems), […]. The reactions were incubated in a 96-well plate at 95° C. for […], followed by 40 cycles of 95° C. for 15 s and 60° C. for 1 min. All reactions were run in triplicate. The threshold cycle (CT) is defined as the fractional cycle number at which the fluorescence passes the fixed threshold. The comparative CT method for relative quantization of gene expression (Applied Biosystems) was used to determine miRNA expression levels. The y axis represents the 2(-CT), or the relative expression of the different miRs. miRs expression was calculated relative to U44 and U48 rRNA and multiplied by 104. Experiments were carried out in triplicate for each data point, and data analysis was performed by using software (Bio-Rad).

c-Jun, PTEN and TIMP3 = assay: Western blot in Huh7 cells after anisomycin
Protocol: (§1) Total proteins from NSCLC and HCC cells were extracted with radioimmuno-precipitation assay (RIPA) buffer ([…] NaCl, […] Tris-HCl, pH 7.5, 1% Triton, 0.1% SDS, 0.1% sodium deoxycholate and 1% Nonidet P40). Sample extract (50 μg) was resolved on 7.5-12% SDS-polyacrylamide gels (PAGE) using a mini-gel apparatus (Bio-Rad Laboratories) and transferred to Hybond-C extra nitrocellulose. Membranes were blocked for 1 h with 5% nonfat dry milk in Tris-buffered saline containing 0.05% Tween 20, incubated overnight with primary antibody, washed and incubated with secondary antibody, and visualized by chemiluminescence.
(§2) The following primary antibodies were used: anti-PTEN, anti-c-Jun, anti-p-c-Jun, anti-Fos, anti-p-JNK, anti-MMP3, anti-Mc1-1 (Santa Cruz), anti-TIMP3 (Millipore) anti-PI3K (BD Biosciences), anti-ERKs, anti-phospho ERKs, anti-AKT, anti-p-AKT, anti-GSK3b, anti-p-GSK3b (Ser9), anti-PAK1 anti-caspase-8,-3 and -9, anti-PARP, anti-cytochrome c (Cell signaling) and anti-MMP9, anti-FADD (Abcam), anti-1-actin antibody (Sigma). A secondary anti-rabbit or anti-mouse immunoglobulin G (IgG) antibody peroxidase conjugate (Chemicon) was used.

PTEN and TIMP3 3′ UTRs = assay: 3′UTR luciferase reporter assay in MEG01 cells; conditions: wild type 3′ UTRs
Source text: The 3′ UTR of the human PTEN and TIMP3 genes were PCR amplified using the following primers: PTEN Fw 5′-TCTAGAGACTCTGATCCAGAGAATGAACC-3′ [SEQ ID No:1] and PTEN Rw 5′-TCTAGAGTTGCCACAAGTGCAAAGGGGTAGGATGTG-3′ [SEQ ID No:2]; TIMP3 Fw 5′-TCTAGACTGGGCAAAGAAGGGTCTTTCGCAAAGC-3′ [SEQ ID No:3] and TIMP3 Rw 5′ TCTAGATTCCAATAGGGAGGAGGCTGGAGGAGTCTC-3′ [SEQ ID No:4] and cloned downstream of the […] luciferase stop codon in pGL3 control vector (Promega), giving rise to the p3′UTR-PTEN and p3′UTR-TIMP3 plasmids.
These constructs were used to generate, by inverse PCR, the p3′-UTRmut-PTEN plasmid-primers: Fw: 5′-GTTGAAAAAAGGTTGGGGGCGGGTGTCATGTATATAC-3 [SEQ ID No:5]; Rw: 5′-GTATATACATGACACCCGCCCCCAACCTTTTTTCAAC-3′[SEQ ID No:6]; p3′-UTRmut-TIMP3 plasmid-primers: Fw: 5′-GTATAATTTAAAATCATTGGGCGGCGGGAGACACTTCTGTATTTC-3′ [SEQ ID No:7]; Rw: 5′-GAAATACAGAAGTGTCTCCCGCCGCCCAATGATTTTAAATTATAC-3′ [SEQ ID No:8].
MeG01 cells were cotransfected with 1 μg of p3′UTR-PTEN or p3′UTR-TIMP3 and with p3′UTRmut-PTEN or p3′ UTR TIMP3 plasmids and 1 μg of a Renilla luciferase expression construct pRL-TK (Promega) by using Lipofectamine 2000 (Invitrogen). Cells were harvested 24 h post-transfection and assayed with Dual Luciferase Assay (Promega) according to the manufacturer's instructions. […]

PTEN and TIMP3 [1] = assay: Western blot of PTEN and TIMP3 in H460 cells; conditions: 72 h, compared to scrambled pre-miR
Protocol: as §1, §2

[2] = tested on: AKT/ERKs pathways and Metallopeptidases; assay: Western blots of AKT/ERKs pathways and metallopeptidases in H460 cells; conditions: H460 cells after forced expression
Protocol: as §1, §2

PTEN and TIMP3 [3] = assay: Western blot of PTEN and TIMP3 in Sk-Hep1 cells; conditions: Sk-Hep1 cells upon over-expression
Protocol: as §1, §2

PTEN and TIMP3 mRNA = assay: qRT-PCR of PTEN and TIMP3 mRNA in H460 cells
H460 cells [4] = assay: Flow cytometric cell cycle analysis of H460 cells; conditions: H460 transfected cells, 72 h
Sk-Hep1 cells = assay: Migration and invasion assay in Sk-Hep1 cells; conditions: Sk-Hep1 cells after transfection
Protocol: (§3) Transwell insert chambers with […] porous membrane (Greiner bio-one) were used for the assay. Cells were washed three times with PBS and added to the top chamber in serum-free media. The bottom chamber was filled with media containing 10% FBS. Cells were incubated for 24 h at 37° C. in a 5% CO2 humidified incubator. To quantify migrating cells, cells on the top chamber were removed by using a cotton-tipped swab, and the migrated cells were fixed in PBS, 25% glutaraldehyde and stained with Crystal Violet stain, visualized under a phase-contrast microscope, and photographed. Cristal violet-stained cells were moreover solubilized in acetic acid and methanol (1:1) and absorbance was measured at 595 nm. The results are means of three independent experiments±S.D.
(§4) H460 and SK-Hep-1 cells were placed into the top chamber of a BD Falcon HTS FluoroBlok insert with a membrane containing […] pores (BD Biosciences) in […] of serum-free Dulbecco's modified Eagle medium in triplicate. […] The fluorescence of migrated cells was quantified using a fluorometer at excitation wavelengths of 485 nm and emission wavelengths of 530 nm and expressed as arbitrary fluorescence units. Data are expressed as mean±standard error of 4 separate determinations.

H460 cells [5] = assay: Migration and invasion assay in H460 cells; conditions: H460 cells after transfection
Protocol: as §3, §4

PTEN and TIMP3 [6] = assay: Western blot of PTEN and TIMP3 in Snu-387 cells; conditions: Snu-387 cells after transfection
Protocol: as §1, §2
(§5) 2′-O-me-GFP miR (5′-[…] [SEQ ID No:17]) was used as control. Cells were grown in six well plate (1.7×10^6 per well) for 24 h and transfected 100 nmoli/L/well of 2′-O-me-oligoribonucleotides using lipofectamine 2000. […]

Snu-387 cells [7] = assay: Migration and invasion assay in Snu-387 cells; conditions: Snu-387 cells after transfection
Protocol: as §3, §4

PTEN and TIMP3 [8] = assay: Western blot of PTEN and TIMP3 in Calu-1 cells; conditions: Calu-1 cells after transfection
Protocol: as §1, §2, §5

Calu-1 cells [9] = assay: Migration and invasion assay in Calu-1 cells; conditions: Calu-1 cells after transfection
Protocol: as §3, §4

Snu-387 cells [10] = assay: Caspase 3/7 assay of TRAIL-induced apoptosis in Snu-387 cells; conditions: Snu-387 cells transfected 72 h, control 2′-O-me-scrambled miR
Protocol: (§6) Cells were grown in six well plate (1.7×10^6 per well) for 24 h and transfected 100 nmoli/L/well of 2′-O-me-oligoribonucleotides using lipofectamine 2000. RNA and proteins were extracted after 72 h from the transfection.
(§7) Cells were plated in 96-well plates in triplicate and incubated at 37° C. in a 5% CO2 incubator. Super-Killer TRAIL (Alexis Biochemicals) was used for 24-48 h at 400 ng ml-1. Cell viability was examined with 3-(4,5-dimethylthiazol-2-yl)-2,5-dipheniltetrazolium bromide (MTT)-Cell Titer 96 AQueous One Solution Cell Proliferation Assay (Promega), according to the manufacturer's protocol. Metabolically active cells were detected by adding 20 μl of MTT to each well. After 1 h of incubation, the plates were analyzed in a Multilabel Counter (Bio-Rad Laboratories). Apoptosis was assessed using Annexin V-FITC apoptosis detection kits followed by flowcytometric analysis and caspase 3/7 activity. […] Statistical analysis was done using two sample t test, assuming equal variance, and P value was calculated based on two-tailed test. For detection of caspase 3/7 activity, cells were cultured in 96-well plates and treated with TRAIL 400 ng/ml and analyzed using Caspase-Glo 3/7 Assay kit (Promega) according to the manufacturer's instructions. Continuous variables are expressed as mean values±standard deviation (s.d.).

Calu-1 cells [11] = assay: Caspase 3/7 assay of TRAIL-induced apoptosis in Calu-1 cells; conditions: Calu-1 cells transfected 72 h, control 2′-O-me-scrambled miR
Protocol: as §6, §7

AKT pathway = assay: Western blots of AKT pathway in Snu-387 cells; conditions: Snu-387 cells after knockdown
Protocol: as §1, §2, §5

| Compound | PTEN and TIMP3 protein level (western blot) (PTEN and TIMP3 [6]) | cell migration and invasion (Snu-387 cells [7]) | PTEN and TIMP3 protein levels (western blot) (PTEN and TIMP3 [8]) | cell migration and invasion (Calu-1 cells [9]) | sensitivity to TRAIL-induced apoptosis (caspase 3/7 assay) (Snu-387 cells [10]) | sensitivity to TRAIL-induced apoptosis (caspase 3/7 assay) (Calu-1 cells [11]) | AKT pathway (western blots) (AKT pathway) | also measured |
| --- | --- | --- | --- | --- | --- | --- | --- | --- |
| COc1ccc(C[C@H]2NC[C@H](O)[C@H]2OC(C)=O)cc1 [anisomycin] |  |  |  |  |  |  |  | miR-221 expression increase (qRT-PCR) (miR-221 and miR-222): 80%; miR-222 expression increase (qRT-PCR) (miR-221 and miR-222): 40%; PTEN and TIMP3 expression levels (c-Jun, PTEN and TIMP3; Huh7 cells after anisomycin): decreased drastically; c-Jun activation (c-Jun, PTEN and TIMP3; Huh7 cells, total lysate, western blot): induced c-Jun activation |
| miR-222: microRNA transfected (100 nM) for enforced expression (GAGACCCAGTAGCCAGATGTAGCT; listed as DNA, chemistry not given here) |  |  |  |  |  |  |  | relative luciferase activity of PTEN and TIMP3 3′ UTR reporter constructs (PTEN and TIMP3 3′ UTRs): significantly affected luciferase expression; endogenous levels of PTEN and TIMP3 (western blot) (PTEN and TIMP3 [1]): significantly reduced the endogenous levels of PTEN and TIMP3; activation of AKT/ERKs pathways and metallopeptidases (western blots) [2]: induces the activation of the AKT/ERKs pathways and Metallopeptidases; PTEN and TIMP3 proteins (western blot) (PTEN and TIMP3 [3]): reduced; down-regulation of TIMP3 mRNA (qRT-PCR) (PTEN and TIMP3 mRNA; H460 cells after enforced expression): not observed; PTEN mRNA levels (qRT-PCR) (PTEN and TIMP3 mRNA; H460 cells after forced expression): strongly reduced; cell cycle distribution (H460 cells [4]): a decrease of G1 and a corresponding increase of the S and G2-M phases; migratory and invasive capabilities (Sk-Hep1 cells): significant increase; migratory and invasive capabilities (H460 cells [5]): significant increase |
| 5′-gagacccagtagccagatgtagct (antisense GAGACCCAGTAGCCAGATGTAGCT; all 2'-O-methyl, backbone and T or U not given here) [2′-O-me-anti-miR-222] | increased the protein level of PTEN and TIMP3 | a decrease in cell migration and invasion | increased the protein levels of PTEN and TIMP3 | a decrease in cell migration and invasion | considerably sensitized these cells to TRAIL-induced apoptosis | considerably sensitized these cells to TRAIL-induced apoptosis | inhibition of the AKT pathway |  |
| 5′-gaaacccagcagacaauguagcu (antisense GAAACCCAGCAGACAAUGUAGCU; all 2'-O-methyl, backbone not given here) [2′-O-me-anti-miR-221] | increased the protein level of PTEN and TIMP3 | a decrease in cell migration and invasion | increased the protein levels of PTEN and TIMP3 | a decrease in cell migration and invasion | considerably sensitized these cells to TRAIL-induced apoptosis | considerably sensitized these cells to TRAIL-induced apoptosis | inhibition of the AKT pathway |  |
